Measurements: patent publication US11192859B2, “Quinoline compounds as modulators of RAGE activity and uses thereof” (NEW YORK UNIVERSITY, priority 2016, dated 2021)

Key:
[1] = target: binding of RAGE tail (ctRAGE) to DIAPH1 (Homo sapiens (Human), UniProt Q15109); experiment: Primary screen (high-throughput): blocking of GFP RAGE tail binding to DIAPH1; details: for inhibition at 12.5 µM: Table 2; for inhibition at 10 µM: Table 1
Protocol: […] Compounds that reduced binding of RAGE tail (ctRAGE) by at least 50% were then selected and subjected to 4-point dose response (10 uM, 1 uM, 0.1 uM and 0.01 uM).
• Step 1. Add 50 μl anti-DIAPH1 (1:160 dilution in 0.1M NaHCO3 pH 9.6)/well. Incubate overnight at 4° C. Day 2 • Step 2. Use the plate washer to aspirate anti-DIAPH11 and wash plates 4× with PBS 100 μl per well per wash. • Step 3. Add 180 μl 3% BSA in 1×PBS. Incubate for 1.5 hrs at room temperature Step 4. Use the plate washer to aspirate the blocking solution and wash 5× with PBS 300 μl per well. • Step 5. Add 50 μl of DIAPH1 containing lysate (85 μg) and incubate at RT for 3 hours. • Step 6. Aspirate the lysate and wash the plate 5×(100 μl) on the plate washer. • Step 7. Add 25 μl PBS to the wells. • Step 8. Add 0.5 μL compound per well. • Step 9. Add 24.5 μL GFP RAGE tail (125 nM) into each well for 2 hrs at room temperature. • Step 10. Aspirate and wash 5× with PBS (100 μL) on the plate washer. • Step 11. Add 100 μl PBS in each well. • Step 12. Detection: Read on fluorescence plate reader excitation […] and 485 nm emission
Compounds that blocked the binding of RAGE tail to DIAPH1 by 50% or more were subjected to 4 point dose response: 10 μM, 1 μM, 0.1 μM and 0.01 μM.

ctRAGE = ctRAGE (Homo sapiens (Human), UniProt Q15109); experiment: Kd determinations (Tables 1 and 2); assay type: binding; details: Table 2
Chain of ctRAGE (Q15109 23-404 limits assumed): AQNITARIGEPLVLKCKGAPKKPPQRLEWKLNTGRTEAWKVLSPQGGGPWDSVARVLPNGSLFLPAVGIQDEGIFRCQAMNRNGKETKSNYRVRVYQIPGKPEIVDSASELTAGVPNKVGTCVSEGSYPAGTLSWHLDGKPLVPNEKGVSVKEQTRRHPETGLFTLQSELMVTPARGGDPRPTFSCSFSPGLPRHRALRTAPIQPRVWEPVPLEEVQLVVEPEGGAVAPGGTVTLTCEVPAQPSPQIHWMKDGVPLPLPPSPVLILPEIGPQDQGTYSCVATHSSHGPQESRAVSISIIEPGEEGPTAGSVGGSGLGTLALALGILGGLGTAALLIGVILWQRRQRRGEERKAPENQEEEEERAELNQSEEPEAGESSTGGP
Protocol: Binding affinities of small molecules for either CT-RAGE or FH1 are determined by performing fluorescence titrations to generate binding isotherms and standard SPR experiments.
A number of representative quinoline compounds of this invention are or can be tested for their inhibitory activity.

Chain of binding of RAGE tail (ctRAGE) to DIAPH1 (Q15109 364-404): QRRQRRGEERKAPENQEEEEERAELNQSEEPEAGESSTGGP

inhibition at 12.5 µM [1] [%] | Kd (ctRAGE) [µM] | inhibition at 10 µM [1] [%] | Structure (SMILES)
20 | 1.9 | – | CC(=O)Nc1ccc(-c2cc(CN3CCOCC3)c3ccccc3n2)nc1 [Compound 109, N-(6-(4-(Morpholinomethyl)quinolin-2-yl)pyridin-3-yl)acetamide]
27 | 43 | – | CC(=O)Nc1ccc(-c2cc(C(=O)N3CCOCC3)c3cccc(Cl)c3n2)cc1 [Compound 101, N-(4-(8-Chloro-4-(morpholine-4-carbonyl)quinolin-2-yl)phenyl)acetamide]
37 | 60 | – | CC(=O)Nc1ccc(-c2cc(C(=O)N3CCOCC3)c3cc(Cl)ccc3n2)cc1 [Compound 104, N-(4-(6-Chloro-4-(morpholine-4-carbonyl)quinolin-2-yl)phenyl)acetamide]
35 | 34 | – | CC(=O)Nc1ccc(-c2cc(C(=O)N3CCOCC3)c3cc(Cl)ccc3n2)nc1 [Compound 106, N-(6-(6-Chloro-4-(morpholine-4-carbonyl)quinolin-2-yl)pyridin-3-yl)acetamide]
37 | 29 | – | CC(=O)Nc1ccc(-c2cc(C(=O)N3CCOCC3)c3cccc(Cl)c3n2)cn1 [Compound 102, N-(5-(8-Chloro-4-(morpholine-4-carbonyl)quinolin-2-yl)pyridin-2-yl)acetamide]
38 | 18 | – | CC(=O)Nc1ccc(-c2cc(C(=O)N3CCOCC3)c3cccc(Cl)c3n2)nc1 [Compound 103, N-(6-(8-Chloro-4-(morpholine-4-carbonyl)quinolin-2-yl)pyridin-3-yl)acetamide]
31 | 44 | – | CC(=O)Nc1ccc(-c2cc(N3CCOCC3)c3ccccc3n2)cc1 [Compound 107, N-(4-(4-Morpholinoquinolin-2-yl)phenyl)acetamide]
18 | – | – | CC(=O)Nc1ccc(-c2cc(CN3CCOCC3)c3cccc(Cl)c3n2)nc1 [Compound 111, N-(6-(8-Chloro-4-(morpholinomethyl)quinolin-2-yl)pyridin-3-yl)acetamide]
– | – | 51 | COC(=O)c1cc(-c2ccc(OC)cc2)nc2ccccc12 [Compound 1]
44 | 11 | – | CC(=O)Nc1ccc(-c2cc(CN3CCOCC3)c3ccccc3n2)cc1 [Compound 108, N-(4-(4-(Morpholinomethyl)quinolin-2-yl)phenyl)acetamide]
32 | 45 | – | CC(=O)Nc1ccc(-c2cc(C(=O)N3CCOCC3)c3cc(Cl)ccc3n2)cn1 [Compound 105, N-(5-(6-Chloro-4-(morpholine-4-carbonyl)quinolin-2-yl)pyridin-2-yl)acetamide]
– | – | 34 | CNC(=O)c1cc(-c2ccc(C)cc2)nc2ccccc12 [Compound 11]
